Key:
Format in all cases: binding
CXCR1 = target: T1, CXCR1 (Homo sapiens, UniProt P25024); assay: NanoBRET screen HiBiT-CXCR1 in HEK293; details: CXCR1
T1 construct: purchased Promega (in-house HiBiT-GPCR construct library, NanoBRET)
T1 sequence (P25024 1-350): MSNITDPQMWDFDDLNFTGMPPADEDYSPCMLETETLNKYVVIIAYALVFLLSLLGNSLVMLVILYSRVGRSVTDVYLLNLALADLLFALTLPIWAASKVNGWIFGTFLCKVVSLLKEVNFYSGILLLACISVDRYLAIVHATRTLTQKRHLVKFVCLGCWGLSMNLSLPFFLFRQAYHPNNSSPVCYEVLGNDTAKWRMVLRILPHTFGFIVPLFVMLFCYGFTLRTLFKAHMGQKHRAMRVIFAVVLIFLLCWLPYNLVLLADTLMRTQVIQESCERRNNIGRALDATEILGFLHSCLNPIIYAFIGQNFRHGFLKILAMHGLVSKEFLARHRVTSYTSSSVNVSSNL
Protocol: (§1) Each tracer candidate was screened across the entire library of HiBiT-GPCR constructs using NanoBRET as the detection modality. As depicted in Figure 4A, the specificity of interactions was evaluated through decrease in BRET due to competitive displacement of a bound tracer by excess parental compound. Each tracer was analyzed for binding to each HiBiT-GPCR fusion in the absence and in the presence of competing parental compound. Briefly, HEK293 cells were transfected with HiBiT-GPCR constructs diluted into promoterless DNA to reduce expression and maximize translocation to the cell surface. Each tracer candidate was then screened at concentrations of 1 μM and 0.1 μM across cells expressing these fusions. Cells were treated for 1.5 h with tracer either alone or in the presence of 20 μM competing parental compound (i.e., control). BRET was measured upon addition of purified LgBiT and subsequent complementation with HiBiT genetically fused to a GPCR. The specificity of interactions was assessed through a decrease in BRET signal due to competitive displacement of the bound tracer. To further gauge the robustness of these interactions, the fold response over the control (i.e., BRETtracer/BRETcontrol) was calculated. We chose a 1.5-fold response, which translates to ≥7-fold signal over noise as the minimal threshold required to score an interaction as positive. […]. Below we highlight the screening results obtained for our exemplary fluorescent tracers based on Clozapine, Amitriptyline and AZD1283.
(§2) HiBiT-GPCR DNA constructs were diluted in 10 mM Tris pH 8 to a final concentration of 0.01 μg/μL, arrayed in 96-well plates and stored at −20 °C. For transfection, HEK293 cells were suspended in Opti-MEM (without phenol red) supplemented with 2% fetal bovine serum (Seradigm) and 100 units/mL penicillin–streptomycin (Gibco) at a final concentration of 220,000 cells/mL and dispensed into white 96-well plates at 90 μL/well. Subsequent transfections and screens were carried using an Agilent Bravo Automated Liquid Handling Platform. First, the 96-well HiBiT DNA arrays were diluted 25-fold in Opti-MEM (without serum or phenol red) to a final concentration of 0.0004 μg/μL and 20 μL of the diluted DNAs were transferred into new 96-well plates. Next, promoterless carrier DNA (1 μg/μL) was diluted 25-fold (0.04 μg/μL) and then dispensed into the diluted arrays at 20 μL/well. Following brief mixing, Viafect transfection reagent (Promega) diluted 16-fold into Opti-MEM was dispensed into the plates at 40 μL/well. After mixing by pipetting, plates were incubated for 10 min on the pipetting station deck. The DNA-transfection reagent complexes were then added to plates containing cells. To facilitate the screen, 10 μL of DNA-transfection reagent complexes were added in duplicates to the top 4 and bottom 4 rows, resulting in two identical 48-well arrays per plate. Plates with transfected cells were incubated for 18–20 h at 37 °C/5% CO2. A screen of each tracer across the entire library using two different concentrations requires duplicate plates of transfected cells. Depending on the number of tracers being screened, transfections can be scaled up using the same ratios. The next day, for each tracer, four 20× screening solutions in tracer dilution buffer (Promega) were prepared: two duplicates at final concentration of 20 μM and two duplicates at a final concentration of 2 μM. A competing unmodified compound was added to one of each duplicate at a final concentration of 400 μM. The four resulting solutions were diluted 4-fold in Opti-MEM without serum or phenol red to generate 5× solutions (5 µM and 0.5 µM tracer +/− 100 μM competing compound). To screen the library, a BioTek MultiFlo FX liquid dispenser was used to dispense 22.5 µL of tracer solution to the top 4 rows and 22.5 µL tracer + competing compound solution to the 4 bottom rows. Plates were briefly mixed on an orbital shaker and incubated for 1.5 h at room temperature. […]

HCRTR1 = target: T2, HCRTR1 (Homo sapiens, UniProt O43613); assay: NanoBRET screen HiBiT-HCRTR1 in HEK293; details: HCRTR1
T2 construct: purchased Promega (in-house HiBiT-GPCR construct library, NanoBRET)
T2 sequence (O43613 1-425): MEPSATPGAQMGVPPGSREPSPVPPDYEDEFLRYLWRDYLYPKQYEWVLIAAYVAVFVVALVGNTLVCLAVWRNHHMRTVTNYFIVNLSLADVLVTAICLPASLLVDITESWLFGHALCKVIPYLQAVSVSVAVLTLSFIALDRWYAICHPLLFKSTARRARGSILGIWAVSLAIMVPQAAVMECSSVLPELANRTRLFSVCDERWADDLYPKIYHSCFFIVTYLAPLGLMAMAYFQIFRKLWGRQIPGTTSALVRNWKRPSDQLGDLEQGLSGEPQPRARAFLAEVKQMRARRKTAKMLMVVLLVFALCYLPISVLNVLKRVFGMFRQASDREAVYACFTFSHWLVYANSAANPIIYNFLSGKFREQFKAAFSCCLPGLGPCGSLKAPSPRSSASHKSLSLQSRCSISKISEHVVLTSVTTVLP
Protocol: as §1, §2

AVPR2 = target: T3, AVPR2 (Homo sapiens, UniProt P30518); assay: NanoBRET screen HiBiT-AVPR2 in HEK293; details: AVPR2
T3 construct: purchased Promega (in-house HiBiT-GPCR construct library, NanoBRET)
T3 sequence (P30518 whole entry): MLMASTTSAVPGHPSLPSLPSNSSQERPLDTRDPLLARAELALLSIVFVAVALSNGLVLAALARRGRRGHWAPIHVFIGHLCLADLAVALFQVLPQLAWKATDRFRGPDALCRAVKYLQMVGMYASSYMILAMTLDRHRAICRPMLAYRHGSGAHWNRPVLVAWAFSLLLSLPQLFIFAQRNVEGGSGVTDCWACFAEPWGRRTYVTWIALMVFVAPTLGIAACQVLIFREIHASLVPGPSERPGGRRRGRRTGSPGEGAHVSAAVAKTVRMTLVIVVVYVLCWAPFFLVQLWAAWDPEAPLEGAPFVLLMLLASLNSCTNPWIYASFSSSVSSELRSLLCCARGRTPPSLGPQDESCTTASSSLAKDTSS
Protocol: as §1, §2

DRD5 = target: T4, DRD5 (Homo sapiens, UniProt P21918); assay: NanoBRET screen HiBiT-DRD5 in HEK293; details: DRD5
T4 construct: purchased Promega (in-house HiBiT-GPCR construct library, NanoBRET)
T4 sequence (P21918 whole entry): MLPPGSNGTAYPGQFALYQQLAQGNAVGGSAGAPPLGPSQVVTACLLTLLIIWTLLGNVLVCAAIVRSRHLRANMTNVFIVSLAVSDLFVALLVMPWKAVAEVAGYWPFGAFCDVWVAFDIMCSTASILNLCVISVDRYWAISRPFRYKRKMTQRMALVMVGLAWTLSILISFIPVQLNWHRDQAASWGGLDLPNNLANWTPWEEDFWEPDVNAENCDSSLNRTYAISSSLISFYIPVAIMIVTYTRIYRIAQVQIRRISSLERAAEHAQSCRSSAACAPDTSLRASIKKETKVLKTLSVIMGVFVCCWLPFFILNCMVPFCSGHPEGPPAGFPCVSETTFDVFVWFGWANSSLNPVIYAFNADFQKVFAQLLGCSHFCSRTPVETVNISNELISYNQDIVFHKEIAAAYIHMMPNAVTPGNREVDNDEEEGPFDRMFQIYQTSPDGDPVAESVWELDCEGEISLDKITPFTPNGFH
Protocol: as §1, §2

PTGER4 = target: T5, PTGER4 (Homo sapiens, UniProt P35408); assay: NanoBRET screen HiBiT-PTGER4 in HEK293; details: PTGER4
T5 construct: purchased Promega (in-house HiBiT-GPCR construct library, NanoBRET)
T5 sequence (P35408 whole entry): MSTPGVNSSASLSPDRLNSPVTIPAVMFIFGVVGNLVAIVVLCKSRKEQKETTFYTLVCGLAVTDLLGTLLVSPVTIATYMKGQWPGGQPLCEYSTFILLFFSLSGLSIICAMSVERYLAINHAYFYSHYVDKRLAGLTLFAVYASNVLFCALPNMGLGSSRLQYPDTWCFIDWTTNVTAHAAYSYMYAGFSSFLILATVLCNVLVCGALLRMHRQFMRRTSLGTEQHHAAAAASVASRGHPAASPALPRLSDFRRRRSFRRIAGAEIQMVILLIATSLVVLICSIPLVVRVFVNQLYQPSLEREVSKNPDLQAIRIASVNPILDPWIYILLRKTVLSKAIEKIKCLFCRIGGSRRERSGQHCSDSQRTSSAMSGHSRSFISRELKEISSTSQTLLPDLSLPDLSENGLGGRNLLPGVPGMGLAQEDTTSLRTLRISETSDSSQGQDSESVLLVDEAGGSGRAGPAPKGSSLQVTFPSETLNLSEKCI
Protocol: as §1, §2

Structure (SMILES)	NanoBRET Fold Response (CXCR1; 0.1μM tracer)	NanoBRET Fold Response (CXCR1; 1μM tracer)	NanoBRET Fold Response (HCRTR1; 0.1μM tracer)	NanoBRET Fold Response (HCRTR1; 1μM tracer)	NanoBRET Fold Response (AVPR2; 0.1μM tracer)	NanoBRET Fold Response (AVPR2; 1μM tracer)	NanoBRET Fold Response (DRD5; 0.1μM tracer)	NanoBRET Fold Response (DRD5; 1μM tracer)	NanoBRET Fold Response (PTGER4; 0.1μM tracer)	NanoBRET Fold Response (PTGER4; 1μM tracer)	NanoBRET Fold Response (CXCR1; tracer 0.1μM)	NanoBRET Fold Response (CXCR1; tracer 1μM)	NanoBRET Fold Response (HCRTR1; tracer 0.1μM)	NanoBRET Fold Response (HCRTR1; tracer 1μM)	NanoBRET Fold Response (AVPR2; tracer 0.1μM)	NanoBRET Fold Response (AVPR2; tracer 1μM)	NanoBRET Fold Response (DRD5; tracer 0.1μM)	NanoBRET Fold Response (DRD5; tracer 1μM)	NanoBRET Fold Response (PTGER4; tracer 0.1μM)	NanoBRET Fold Response (PTGER4; tracer 1μM)
CN1CCN(C2=Nc3cc(Cl)ccc3N(CC(=O)NCCOCCOCCOCCOCCNC(=O)CCc3ccc4n3[B-](F)(F)[N+]3=C(c5ccc[nH]5)C=CC3=C4)c3ccccc32)CC1 [Clozapine-c-2-NB590]	0.99	0.94	0.98	1.00	0.99	1.00	0.98	1.16	1.00	1.05	–	–	–	–	–	–	–	–	–	–
O=C(CCOCCOCCOCCOCCNC(=O)CCc1ccc2n1[B-](F)(F)[N+]1=C(c3ccc[nH]3)C=CC1=C2)NCCCN1CCN(C2=Nc3ccccc3Oc3ccc(Cl)cc32)CC1 [Loxapine-a-2-NB590]	–	–	–	–	–	–	–	–	–	–	1.02	0.94	0.93	1.09	1.04	1.05	1.25	2.20	0.97	1.07
COc1ccccc1N1CCN(CCCCN2C(=O)c3ccc(CNC(=O)CCOCCNC(=O)c4ccc(CNC(=O)CCc5ccc6n5[B-](F)(F)[N+]5=C(c7ccc[nH]7)C=CC5=C6)cc4)cc3C2=O)CC1 [NAN-190-3-NB590]	–	–	–	–	–	–	–	–	–	–	0.93	0.83	0.98	0.91	1.08	1.11	1.05	1.42	1.00	0.97
O=C(CCc1ccc2n1[B-](F)(F)[N+]1=C(c3ccc[nH]3)C=CC1=C2)NCc1ccc(C(=O)NCCOCCC(=O)N[C@@H]2CC[C@@]3(O)[C@H]4Cc5ccc(O)c6c5[C@@]3(CCN4CC3CC3)[C@H]2O6)cc1 [Naltrexone-3-NB590]	–	–	–	–	–	–	–	–	–	–	0.95	0.75	0.98	0.88	1.30	0.97	1.25	1.07	0.94	1.01
Cc1cc2c(s1)Nc1ccccc1N=C2N1CCN(CCCNC(=O)CCOCCOCCOCCOCCNC(=O)CCc2ccc3n2[B-](F)(F)[N+]2=C(c4ccc[nH]4)C=CC2=C3)CC1 [Olanzapine-a-2-NB590]	–	–	–	–	–	–	–	–	–	–	1.00	0.99	0.98	0.99	0.98	0.92	1.20	2.53	1.02	1.07
